The subject of one test is MDA-MB-231 cells. The test is described as follows: MTT proliferation assay, MDA-MB-231. The test is classed as cell-based. The method, then: (§1) MTT assay—The MTT assay was used to detect cell proliferation. Briefly, cells were plated in a 96-well plate at a density of 50,000 cells/well in 200 μl of culture medium with candidate drugs to be tested (DMSO as a negative control). The treated cells were incubated for four hours a 37° C. with a 5% CO2 incubator to allow dark crystals to form at the bottom of the wells. After culturing for 48 hours, […] of MTT reagent was added to each well and mixed gently for one minute. After aspirating the culture medium from each well, 100 μl of crystal dissolving solution was added to each well and incubated for 10 minutes at RT. The signal was quantified by measuring the absorbance in each sample at 570 nm using a microplate reader.
Compound II is referred to as “NC5-SO2F” in FIGS. 7A-7C.
Cell proliferation was first determined by MTT assay as confirmation. […] CrkL is known to mediate the activation of both Raf/ERK and PI3K pathways. So, proteins that relate to these two pathways were utilized.
In general terms: Tetrazolium assays rely on reduction of a dye to a coloured formazan, in cell work by metabolically active cells.

For the next test, the system named is Hs578T cells. Put plainly: MTT proliferation assay, Hs578T. In kind it is cell-based. To be noted: 2.5 μM, 48 hours, vs DMSO. The protocol: as §1
For test [1], the system named is PBNK cells killing activity towards MDA-MB-231. The test is described as follows: Cr51 release assay, PBNK killing of MDA-MB-231. The test is classed as cell-based. Conditions: 1 uM overnight. The method, then:
PBNK cells were incubated with 1 uM NC5 or Compound III overnight, then cells were harvested for Cr51 release assay to check cell cytotoxicity. […] The star symbol indicates the significance of vehicle control vs. NC5 of the indicated E:T ratios. *p<0.05, **p<0.01, n=3.

The target in another test is Ab1 (Homo sapiens, UniProt P00519). Put plainly: Thermal shift assay, Ab1. In kind it is binding.
A further test has as its system AML cell line (MoLM-13). Put plainly: CCK-8 cell viability, MoLM-13. The test is classed as cell-based, human. To be noted: 1 uM, 5 uM, 10 uM; 48 hours. The method, then: In this example, activities of NC5, Compound III, and the known chemotherapeutic, Cytarabine, were evaluated in the AML cell line (MoLM-13). MoLM-13 cells were collected and seeded at 5,000 cells/well in 96-well plates. The cells were incubated for 24 hours before the addition of either DMSO control or drug at various concentrations. After an additional 48 hours of incubation, 3 μL of CCK-8 was added to every well and incubated at 37° C. for 3 hours. Absorbance was measured at 460 nm in a plate reader. […] The related absorbance was normalized and plotted as line graphs. p-values were determined through two tails student t-tests (*=p<0.5, **=p<0.01, ***=p<0.001).

Test [2] has as its system CD147-CAR-NK killing in BXPC3 cells. Put plainly: Cr51 release assay, CD147-CAR-NK killing of BXPC3. Conditions: 1 uM overnight. The test is classed as cell-based. The protocol: (§2) In this example, activity of NC5 was evaluated for PBNK and CD147-CAR-NK killing in BXPC3 cells. PBNK or CD147-CAR-NK cells were incubated with 1 uM NC5 overnight, then cells were harvested for Cr51 release assay to check cell cytotoxicity. […] The star symbol indicates the significance of vehicle vs. NC5 of the indicated E:T ratios. *p<0.05, **p<0.01, n=3.

The subject of a further test is HCC HepG2 cells. Put plainly: MTT proliferation assay, HepG2. The test is classed as cell-based. Conditions: 48 hours. The protocol: as §1
Another test concerns the target CrkL (Homo sapiens, UniProt P46109). The test is described as follows: Thermal shift assay, CrkL. In kind it is binding. To be noted: increase of 2° C. or greater in Tm defined as positive. The protocol: Thermal Shift Assay—Thermal shift assay is a thermal-denaturation assay, which can measure the thermal stability of a tested protein. When a protein of interest is bound to a ligand (or drug), its melting temperature increases. For each single well assay, CrkL (1 μg per well), SYPRO® Orange (1:500 dilution from original stock), candidate drugs (same final concentration as in AlphaScreen) and reaction buffer (1×TBS) were mixed. The total volume for a single well was 10 ul. The assay was quantified by a melt curve on a real-time PCR machine, using melting temperatures from 20° C. to 95° C.
To identify specific pCrk inhibitors, thermal shift and in vitro kinase assays were used to distinguish between these possibilities. In a thermal shift assay, each tested protein (purified Ab1 or CrkL) has a melting temperature (Tm) detected by a protein stain dye such as Sypro Orange. After binding to a drug, the Tm of the tested protein will increase as a higher temperature is required to unfold the protein (FIG. 2A). A total of 71 candidate compounds from different libraries were evaluated, which were previously identified by the initial AlphaScreen assay, on both CrkL and Ab1. An increase of 2° C. or greater in Tm (stable increase in three independent experiments) was defined as a positive result in these thermal shift assays.

The next test concerns PBMC cells. The test is described as follows: Annexin V/PI apoptosis, PBMC. Conditions: various concentrations, 24 hours. In kind it is cell-based, human. The method, then: Annexin V/PI Staining—Experimental cells were collected, washed with 1×PBS, resuspended in the binding buffer, and stained with an Annexin V-FITC assay Kit (Millipore Sigma). The cells were incubated with 50 μg/ml Annexin V in 1× binding buffer at room temperature for 15 minutes, then 10 μg/ml propidium iodide for another 15 minutes and analyzed by flow cytometry (EPICS XL). Annexin V-positive/PI-negative cells were considered early apoptotic, cells with both Annexin V and PI-positive to be late apoptotic, and Annexin V negative but PI-positive to be “necrotic.” The percent of apoptosis was calculated as the sum of the percentages of both early and late apoptotic cells.
To figure out the features of cytotoxic effects of Pomiferin on breast cancer cells. Pomiferin-treated breast cancer cells were stained with an Annexin V/PI kit and measured them with Flow Cytometry.

The subject of test [3] is PBNK killing in BXPC3 cells. The test is described as follows: Cr51 release assay, PBNK killing of BXPC3. In kind it is cell-based. To be noted: 1 uM overnight. The method, then:
as §2

Chain of CrkL (P46109 whole entry): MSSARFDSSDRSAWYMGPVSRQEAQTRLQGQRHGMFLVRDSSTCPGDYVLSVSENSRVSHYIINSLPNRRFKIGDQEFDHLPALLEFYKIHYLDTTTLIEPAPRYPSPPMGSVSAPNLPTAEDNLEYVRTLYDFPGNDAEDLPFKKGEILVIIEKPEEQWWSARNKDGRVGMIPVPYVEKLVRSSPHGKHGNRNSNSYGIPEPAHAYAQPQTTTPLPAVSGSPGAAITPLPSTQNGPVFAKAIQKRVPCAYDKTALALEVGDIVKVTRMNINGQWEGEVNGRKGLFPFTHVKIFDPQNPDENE
Chain of Ab1 (P00519 whole entry): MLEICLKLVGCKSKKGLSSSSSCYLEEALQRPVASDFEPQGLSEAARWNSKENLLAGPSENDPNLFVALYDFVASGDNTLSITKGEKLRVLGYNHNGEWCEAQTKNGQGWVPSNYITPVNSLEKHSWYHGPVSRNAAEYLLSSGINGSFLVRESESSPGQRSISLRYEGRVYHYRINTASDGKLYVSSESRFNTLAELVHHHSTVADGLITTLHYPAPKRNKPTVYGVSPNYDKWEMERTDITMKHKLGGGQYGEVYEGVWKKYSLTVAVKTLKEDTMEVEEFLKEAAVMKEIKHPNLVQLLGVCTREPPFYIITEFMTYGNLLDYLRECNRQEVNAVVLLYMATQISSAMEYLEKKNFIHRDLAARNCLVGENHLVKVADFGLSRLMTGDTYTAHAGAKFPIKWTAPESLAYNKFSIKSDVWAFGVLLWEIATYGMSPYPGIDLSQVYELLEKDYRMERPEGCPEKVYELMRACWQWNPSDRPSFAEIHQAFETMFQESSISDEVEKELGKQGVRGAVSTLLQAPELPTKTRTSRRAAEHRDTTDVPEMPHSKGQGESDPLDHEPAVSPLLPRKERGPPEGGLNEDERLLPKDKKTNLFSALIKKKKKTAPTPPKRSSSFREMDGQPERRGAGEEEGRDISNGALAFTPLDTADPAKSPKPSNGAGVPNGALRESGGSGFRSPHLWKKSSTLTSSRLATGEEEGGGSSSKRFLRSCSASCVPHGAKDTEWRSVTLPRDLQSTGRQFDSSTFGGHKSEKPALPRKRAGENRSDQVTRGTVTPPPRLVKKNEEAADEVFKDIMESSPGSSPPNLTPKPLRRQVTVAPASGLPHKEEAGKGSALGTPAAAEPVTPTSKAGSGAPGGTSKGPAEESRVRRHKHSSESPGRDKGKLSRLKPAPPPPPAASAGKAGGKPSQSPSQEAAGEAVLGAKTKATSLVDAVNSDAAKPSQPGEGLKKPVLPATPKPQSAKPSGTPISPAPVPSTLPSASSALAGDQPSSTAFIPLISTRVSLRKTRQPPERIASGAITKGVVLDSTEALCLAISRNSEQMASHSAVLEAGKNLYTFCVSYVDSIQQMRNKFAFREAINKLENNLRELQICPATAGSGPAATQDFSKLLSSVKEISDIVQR
Description for Ab1: In a thermal shift assay, each tested protein (purified Ab1 or CrkL) has a melting temperature (Tm) detected by a protein stain dye such as Sypro Orange. […] An increase of 2° C. or greater in Tm (stable increase in three independent experiments) was defined as a positive result in these thermal shift assays.

As for `CC(C)=CCc1c2c(c3occ(-c4ccc(O)c(O)c4)c(=O)c3c1O)C=CC(C)(C)O2` [Pomiferin, 3′,4′,5-Trihydroxy-6″,6″-dimethyl-6-(3-methylbut-2-en-1-yl)-6″H-pyrano[2″,3″:7,8]isoflavone], the “cell proliferation (MTT)” value in the test with MDA-MB-231 cells (1 uM, 5 uM and 10 uM, 24 hours) is “significantly inhibited cell proliferation”; with MDA-MB-231 cells (2.5 μM, 48 hours, vs DMSO), “blocked cell proliferation”; in the test with Hs578T cells, “had an inhibitory effect on proliferation”. Also, the “PBNK cells killing activity (Cr51 release)” value in test [1] is “increased PBNK cells killing activity”. Besides, the “binding to Ab1 versus Crk (thermal shift)” value on Ab1 was “specifically binds to Crk, but not Ab1 proteins”. For the same molecule, in the test on AML cell line (MoLM-13), the “cell viability (CCK-8)” value is recorded as “decreased cell viability”. In test [2], the “CD147-CAR-NK killing (Cr51 release)” value is reported as “increased”. Also, in the test with HCC HepG2 cells, the “concentration at which HepG2 cell proliferation starts to be significantly inhibited” value is “one”. The “Tm of CrkL (thermal shift)” value at CrkL was “the Tm of CrkL increased”. Further, the apoptosis result with PBMC cells is “limited responses”. Besides, in test [3], the “PBNK killing (Cr51 release)” value is reported as “increased”.

Source of the values: patent publication US20250154180A1, “CRK-LIKE (CRKL) ADAPTOR PROTEIN INHIBITORS AND METHODS OF MAKING AND USING THE SAME” (Rutgers, The State University of New Jersey, priority 2022, published 2025).
